The source of these data is US20100298280A1, “Compounds for the Modulation of Huntingtin Aggregation, Methods and Means for Identifying Such Compounds” (priority 2007, published 2010).

Entries after “also recorded” stand apart in the source; their conditions may differ.

In series [1] the target is T1, mutant huntingtin aggregates (HDex1Q68 fused to ECFP/EYFP) (Homo sapiens, UniProt P42858, INS38QQQQQQQQQQQQQQQQQQQQQQQQQQQQQQQQQQQQQQQQQQQQQQQ). The series can be described thus: Cellular FRET aggregation assay in stable Tet-off CHO-AA8/Q68-Q68 cells. In kind it is cell-based.
T1 sequence (P42858 1-88, stated change not applied): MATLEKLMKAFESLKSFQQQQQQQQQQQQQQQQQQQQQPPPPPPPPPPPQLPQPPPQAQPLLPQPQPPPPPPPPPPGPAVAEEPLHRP
Series [2] deals with T1, mutant huntingtin aggregates (HDex1Q68 fused to ECFP/EYFP). Described as above. In kind it is cell-based. The following applies: 48 h, 2% DMSO. As for the experimental part: To determine the potential of possibly inhibiting substances the inventors performed dose response assays at concentrations ranging from 1, to 100 μM.
Screening was performed in 96-well plates (greiner bio-one) containing 1×10^4 cells/well of the stably inducible tet off cell lines htt-mut (six-fold) and CHO-AA8 line (three fold) for background control. Simultaneously, each compound was checked for its potential autofluorescence.
Two stable inducible CHO Tet off cell lines were constructed expressing simultaneously wildtype (CHO-AA8/Q17-Q17) or mutant (CHO-AA8/Q68-Q68) huntingtin fragments fused to ECFP or EYFP (FIG. 1B) after withdrawal of doxicycline (dox). Basal and induced expression levels of huntingtin fusion proteins were examined by Western blot analysis at different time intervals (4, 24, 48, and 72 hours). […] For the screening approach stable inducible huntingtin expressing cell lines were seeded in 96-well plates and the fluorescence intensities were measured with a fluorescence plate reader.
The test compounds were mixed in a fresh doxicycline-free medium with 2% DMSO and added to the Tet off cell lines two to three hours after seeding and attachment of the cells.
(§1) The FRET-measurement was performed 48 h later.
Subsequently, a second screening round was performed at concentration range 1, 3, and 10 μM, respectively.

Series [3] has as its system flies expressing Htt-Exon-1Q93 in all neurons. The series can be described thus: Climbing assay in a Drosophila model of HD. The series is classed as in vivo. The method, then:
(A) Expression of the htt proteins in transgenic flies is driven by the bipartite expression system upstream activator sequence (UAS)-GAL4 (yeast transcriptional activator). Stocks w; P(w^+mC; w+; elav−GAL4/CyO) and w; P(w+mC=UAS-Q93httexon1) were crossed in order to obtain flies expressing mutant htt fragments in all neurons.
(B, C) Flies expressing Htt-Exon-1Q93 were fed with khayanthone (100 μM, 250 μM) or DMSO supplemented food. Effects of khayanthone on flies' motor ability were measured with the climbing assay. For this purpose flies were placed in a vial, then the height half of them were able to climb from the bottom within 60 sec was determined. In addition the time was measured which half of them needed to climb up 6 cm. […] Each curve represents a population of ˜40 flies. Error bars represent the SD of 5 repeats on each measuring point.
Flies were mated at 25° C. in vials containing standard food supplemented with different concentrations of the compound tested. Adults were transferred to vials containing fresh food supplemented with different concentrations of khayanthone (100 μM, 250 μM, and DMSO control) every 3 days after eclosion.
Effects of khayanthone on the flies' motor ability were measured with the climbing assay. For this purpose flies were placed in a vial, then the height, which half of them were able to climb from the bottom within 60 sec, was determined. In addition, the time was measured which half of them needed to climb up 6 cm. The assays were repeated five times on each population sample.

Another series deals with CHO-AA8/Q68-Q68 cells. The series can be described thus: Propidium iodide exclusion assay (viability, cell number) following the FRET assay. The method, then:
CHO-AA8/Q68-Q68, CHO-AA8/Q17-Q17 and CHO-AA8 cells were seeded in 96 well plates. After attachment of the cells, the medium was exchanged for Ham's F 12 medium containing 10% doxicycline free FBS and 2% DMSO supplemented with compounds. After 48 h the fluorescence intensities of cells were measured using a fluorescence plate reader (Fluoroscan Ascent, Thermo Scietific) and filtersets for CFP (ex 444 nm, em 485 nm), YFP(ex 485 nm, em 538 nm) and FRET (ex 444 nm, em 538 nm). After correction of background fluorescence (subtraction of CHO-AA8 cell fluorescence intensities) the FRET signal was determined using the method: FA=(FRET-a*YFP)/CFP with a=0.11 (Zal u. Gascoigne 2004, Zal et al. 2002). In following, the viability of cells was measured using a propidium iodide exclusion assay (Sattler et al. 1997). PI was added to the cells at final concentration of 0.15 mg/ml. After 15 minutes the PI fluorescence intensity was measured (ex 530 nm, em 620 nm). The cells were then lysed with 0.5% Triton X-100 (TX100) and the PI fluorescence intensity was measured again. Viability of cells was calculated as viability=1−(PIbefore TX100/PIafter TX100).
as §1

A further series relates to HSP40. The series can be described thus: Western blot of heat shock protein expression in SH-SY5Y cells. The series is classed as cell-based. To be noted: SH-SY5Y cell line, increasing concentration. The method, then: (§2) Utilizing Western-blot analysis concentration-dependent effects of khayanthone on protein expression of HSP40, HSP70, and HSP90 were detected. Immuno detection was performed using HSP specific monoclonal antibodies, respectively.
(§3) We examined effects of khayanthone on the expression of heat shock proteins, preferentially HSP40, HSP70 and HSP90, because of their impacts in neurodegenerative disease and cancer. Heat shock protein expression was determined in neuronal cells (SH-SY5Y cell line) by western blot analysis.
In general terms: Immunoblotting shows a protein as a band on a membrane.

The next series has as its system HSP70. The series is described as above. In kind it is cell-based. The following applies: SH-SY5Y cell line, increasing concentration. The method, then: as §2, §3
In another series the test system is HSP90. Described as above. The series is classed as cell-based. To be noted: SH-SY5Y cell line, increasing concentration. The method, then:
as §2, §3

The subject of series [4] is proteasome (chymotrypsin activity). As to the kind of experiment: Proteasome activity, hydrolysis of Suc-LLVY-AMC in CHO-AA8/Tet-Off cells. In kind it is cell-based. The following applies: 24 h. As for the experimental part: The concentration-dependent effect of khayanthone, 17-AAG, Gedunin, and Lactacystin on proteasome activity was tested using a non-recombinant CHO Tet-Off cell line. Cells were incubated with the given compounds for 24 h. Subsequently, proteasome activities were measured by a fluoroscan according to the degradation rate of a fluorogenic substrate (Suc-LLVY-AMC). In correlation to DMSO treated controls khayanthone led to an increase of proteasome activity about 40-50% in CHO-AA8/Tet-Off cells.
To confirm this we examined the chymotrypsin activity of the proteasome under the influence of khayanthone and compared data with known substances influencing the proteasomes' activity (gedunin, lactacystin, 17-AAG) (FIG. 4). Adminstration of the selected substances was performed for 24 h, and subsequently chymotrypsin activity of the UPS was determined by measuring the hydrolysis of a fluorogenic reporter (Suc-LLVY-AMC, Biomol).

Setting [5] is: after day 18, food with 100 μM, 250 μM.

On to `CC(=O)O[C@H]1C[C@@H](OC(C)=O)C(C)(C)C2C[C@@H](OC(C)=O)[C@]3(C)C(CC[C@@]4(C)[C@H]([C@H]5CCOC5)C(=O)[C@H]5O[C@]543)[C@]21C` (stereo partly shown) [S1, khayanthone], for which the “Number of mutant huntingtin aggregates (fluorescence microscopy images)” value in series [1] is reported as “decrease with increasing compound concentration”. Besides, the “FRET-signal (effect in words)” value in series [2] is given as “decreases”. Moreover, in series [3] (setting [5]), the “climbing distance in 60 sec (height half of the flies climb)” value is given as ~50 % of the initial distance and the “time half of the flies need for a 6 cm distance” value is listed as 2.3 times of the initial time. For the same compound, the “difference in climbing between treated and untreated flies” value in series [3] (until day 18) is on record as “no detectable difference”. Besides, the “motor ability / mobility compared to DMSO treated flies (in words)” value in series [3] (with increasing age, food with 100 μM, 250 μM) is “improves significantly motor deficits; also recorded: maintain an improved mobility”. Further, the “Cell number (effect in words)” value in the series with CHO-AA8/Q68-Q68 cells is on record as “unaffected”. Moreover, the HSP40 protein expression entry with HSP40 is “decreased expression; also recorded: slight decrease”. For the same compound, the HSP70 protein expression result in the series with HSP70 was “decreased expression; also recorded: slight decrease”. Also, the HSP90 protein expression result with HSP90 is listed as “decreased expression; also recorded: slight decrease”. The highest chymotrypsin activity result in series [4] (1 μM) is reported as “about 40%”. Moreover, the “chymotrypsin activities (decline with increasing concentrations)” value in series [4] (3, 10 μM) is recorded as roughly 10%. The “increase of proteasome activity” value in series [4] (CHO-AA8/Tet-Off cells, in correlation to DMSO treated controls) was 40-50%.
